According to PMC11589570, “Critical assessment of LC3/GABARAP ligands used for degrader development and ligandability of LC3/GABARAP binding pockets” (Nature Communications, 2024):
Where two headings read alike, the source gives them in different places.

Target: LC3B (Homo sapiens, UniProt Q9GZQ8)
Conditions: for CSP: LC3B:TH152 1:2

CSP induced (G85 HN resonance, molar ratio TH152:LC3B 0.125): 0.02291
CSP induced (G85 HN resonance, molar ratio TH152:LC3B 0.25): 0.03839
CSP induced (G85 HN resonance, molar ratio TH152:LC3B 0.5): 0.1193
CSP induced (G85 HN resonance, molar ratio TH152:LC3B 1): 0.155
CSP induced (G85 HN resonance, molar ratio TH152:LC3B 2): 0.2522
CSP induced (G85 HN resonance, molar ratio TH152:LC3B 4): 0.2665
CSP induced (K51 HN resonance, molar ratio TH152:LC3B 0.125): 0.02268
CSP induced (K51 HN resonance, molar ratio TH152:LC3B 0.25): 0.07734
CSP induced (K51 HN resonance, molar ratio TH152:LC3B 0.5): 0.1341
CSP induced (K51 HN resonance, molar ratio TH152:LC3B 1): 0.2088
CSP induced (K51 HN resonance, molar ratio TH152:LC3B 2): 0.2565
CSP induced (K51 HN resonance, molar ratio TH152:LC3B 4): 0.2885
CSP (LC3B residue A75): 0.013 ppm
CSP (LC3B residue A78): 0.040 ppm
CSP (LC3B residue A114): 0.035 ppm
CSP (LC3B residue D19): 0.028 ppm
CSP (LC3B residue D48): 0.348 ppm
CSP (LC3B residue D56): 0.088 ppm
CSP (LC3B residue D104): 0.039 ppm
CSP (LC3B residue D106): 0.043 ppm
CSP (LC3B residue E14): 0.013 ppm
CSP (LC3B residue E18): 0.013 ppm
CSP (LC3B residue E25): 0.075 ppm
CSP (LC3B residue E36): 0.143 ppm
CSP (LC3B residue E41): 0.015 ppm
CSP (LC3B residue E62): 0.105 ppm
CSP (LC3B residue E97): 0.079 ppm
CSP (LC3B residue E100): 0.117 ppm
CSP (LC3B residue E102): 0.024 ppm
CSP (LC3B residue E105): 0.037 ppm
CSP (LC3B residue E117): 0.088 ppm
CSP (LC3B residue F07): 0.134 ppm
CSP (LC3B residue F13): 0.017 ppm
CSP (LC3B residue F52): 0.303 ppm
CSP (LC3B residue F108): 0.042 ppm
CSP (LC3B residue F119): 0.051 ppm
CSP (LC3B residue G40, estimated): 0.060 ppm
CSP (LC3B residue G107): 0.021 ppm
CSP (LC3B residue H27): 0.041 ppm
CSP (LC3B residue H57): 0.104 ppm
CSP (LC3B residue I23): 0.063 ppm
CSP (LC3B residue I31): 0.112 ppm
CSP (LC3B residue I34): 0.268 ppm
CSP (LC3B residue I35): 0.113 ppm
CSP (LC3B residue I64): 0.179 ppm
CSP (LC3B residue I66): 0.103 ppm
CSP (LC3B residue I67): 0.053 ppm
CSP (LC3B residue K08): 0.049 ppm
CSP (LC3B residue K30): 0.042 ppm
CSP (LC3B residue K39): 0.108 ppm
CSP (LC3B residue K42): 0.061 ppm
CSP (LC3B residue K49): 0.162 ppm
CSP (LC3B residue K51): 0.313 ppm
CSP (LC3B residue K65): 0.162 ppm
CSP (LC3B residue K103): 0.084 ppm
CSP (LC3B residue L22): 0.077 ppm
CSP (LC3B residue L44): 0.080 ppm
CSP (LC3B residue L47): 0.391 ppm
CSP (LC3B residue L53): 0.260 ppm
CSP (LC3B residue L63): 0.163 ppm
CSP (LC3B residue L71): 0.095 ppm
CSP (LC3B residue L73): 0.103 ppm
CSP (LC3B residue L109): 0.035 ppm
CSP (LC3B residue M01, estimated): 0.020 ppm
CSP (LC3B residue M60): 0.042 ppm
CSP (LC3B residue M111): 0.134 ppm
CSP (LC3B residue N59): 0.559 ppm
CSP (LC3B residue N74): 0.039 ppm
CSP (LC3B residue N76): 0.012 ppm
CSP (LC3B residue P02, estimated): 0.020 ppm
CSP (LC3B residue P28, estimated): 0.020 ppm
CSP (LC3B residue P32, estimated): 0.150 ppm
CSP (LC3B residue P45, estimated): 0.170 ppm
CSP (LC3B residue P55, estimated): 0.150 ppm
CSP (LC3B residue Q09): 0.00263 ppm
CSP (LC3B residue Q15): 0.016 ppm
CSP (LC3B residue Q26): 0.095 ppm
CSP (LC3B residue Q43): 0.037 ppm
CSP (LC3B residue Q72): 0.019 ppm
CSP (LC3B residue Q77): 0.045 ppm
CSP (LC3B residue Q116): 0.027 ppm
CSP (LC3B residue R10): 0.025 ppm
CSP (LC3B residue R11): 0.027 ppm
CSP (LC3B residue R16): 0.021 ppm
CSP (LC3B residue R21): 0.028 ppm
CSP (LC3B residue R24): 0.060 ppm
CSP (LC3B residue R37): 0.107 ppm
CSP (LC3B residue R68): 0.281 ppm
CSP (LC3B residue R69): 0.147 ppm
CSP (LC3B residue R70): 0.122 ppm
CSP (LC3B residue S03, estimated): 0.020 ppm
CSP (LC3B residue S61): 0.163 ppm
CSP (LC3B residue S96): 0.238 ppm
CSP (LC3B residue S101): 0.072 ppm
CSP (LC3B residue S115): 0.019 ppm
CSP (LC3B residue T06): 0.020 ppm
CSP (LC3B residue T12): 0.021 ppm
CSP (LC3B residue T29): 0.015 ppm
CSP (LC3B residue T50): 0.299 ppm
CSP (LC3B residue T118): 0.045 ppm
CSP (LC3B residue V17): 0.022 ppm
CSP (LC3B residue V20): 0.018 ppm
CSP (LC3B residue V33): 0.194 ppm
CSP (LC3B residue V46): 0.270 ppm
CSP (LC3B residue V54): 0.190 ppm
CSP (LC3B residue V58): 0.313 ppm
CSP (LC3B residue V98): 0.081 ppm
CSP (LC3B residue V112): 0.337 ppm
CSP (LC3B residue Y38): 0.061 ppm
CSP (LC3B residue Y99): 0.068 ppm
CSP (LC3B residue Y110): 0.103 ppm
CSP (LC3B residue Y113): 0.148 ppm
CSP induced (M111 HN resonance, molar ratio TH152:LC3B 0.125): 0.01154
CSP induced (M111 HN resonance, molar ratio TH152:LC3B 0.25): 0.02288
CSP induced (M111 HN resonance, molar ratio TH152:LC3B 0.5): 0.0422
CSP induced (M111 HN resonance, molar ratio TH152:LC3B 1): 0.08206
CSP induced (M111 HN resonance, molar ratio TH152:LC3B 2): 0.1192
CSP induced (M111 HN resonance, molar ratio TH152:LC3B 4): 0.1287
CSP induced (S90 HN resonance, molar ratio TH152:LC3B 0.125): 0.02291
CSP induced (S90 HN resonance, molar ratio TH152:LC3B 0.25): 0.03839
CSP induced (S90 HN resonance, molar ratio TH152:LC3B 0.5): 0.1193
CSP induced (S90 HN resonance, molar ratio TH152:LC3B 1): 0.155
CSP induced (S90 HN resonance, molar ratio TH152:LC3B 2): 0.2522
CSP induced (S90 HN resonance, molar ratio TH152:LC3B 4): 0.2665
CSP induced (V33 HN resonance, molar ratio TH152:LC3B 0.125): 0.02123
CSP induced (V33 HN resonance, molar ratio TH152:LC3B 0.25): 0.03832
CSP induced (V33 HN resonance, molar ratio TH152:LC3B 0.5): 0.08102
CSP induced (V33 HN resonance, molar ratio TH152:LC3B 1): 0.1239
CSP induced (V33 HN resonance, molar ratio TH152:LC3B 2): 0.1753
CSP induced (V33 HN resonance, molar ratio TH152:LC3B 4): 0.2006
SMILES: CCCCCCC(Sc1nc(Cl)cc(Nc2nc(-c3ccc(C(=O)O)cc3)cs2)n1)C(=O)O (stereo not shown) [compound 21]
